Measurements as given in PMC8695591 (RSC Advances, 2021).

Biological target: cathepsin B (Homo sapiens, UniProt P07858)
Experiment: Cathepsin B inhibition assay
Type: biochemical

- IC50: 7.5 µM
Structure (SMILES): CC(=O)N[C@@H](CC(C)C)C(=O)N[C@@H](CC(C)C)C(=O)N[C@H](C=O)CCCNC(=N)N [Leupeptin]
